Test results published in US11202761B2, “Formulations for oral delivery of adsorbents in the gut” (Da Volterra, priority 2010, dated 2021).
Where two headings read alike, the source gives them in different places.

Columns and labels:
[1] = Kinetics of ciprofloxacin adsorption by activated charcoal measured by microbiological assay; conditions: ciprofloxacin 50 μg/ml, 150 μg/ml activated charcoal, pH 6.0
Experimental: The microbiological assay consists in measuring the biological activity of an antibiotic, i.e. its capacity to inhibit the growth of an indicator bacterial strain. […] 20 μl samples containing the antibiotic to be measured were spotted onto paper discs applied directly onto the surface of the agar plates. After 18 h incubation at 37° C., the diameters of the zones around the paper discs where bacterial growth had been inhibited by the presence of the antibiotic were measured.

[2] = in vitro adsorption of various antibiotics onto activated charcoal; assay type: physicochemical; conditions: PBS pH 6, 37° C.
Experimental: (15 ml polypropylene tube, slow rotation 20 rpm), • sampling at 0.5 h, 1 h and 2 h, • Residual antibiotic dosage (i.e., not adsorbed) was determined by UV/visible spectrophotometric analysis.

[3] = In vitro adsorption kinetics of SN-38 onto activated charcoal; assay type: physicochemical; conditions: activated charcoal/SN-38 ratio of 10:1, 50 μg/mL in 0.01 M NaOH pH 12
Experimental: SN-38 was dissolved at a concentration of 50 μg/mL in 0.01 M NaOH pH 12. Non adsorbed SN-38 was detected after centrifugation and filtration by at its absorbance at 411 nm using a spectrophotometer.

topoisomerase I = biological target: T1, topoisomerase I (Homo sapiens, UniProt P11387); conditions: in vitro; cited from earlier work
T1 sequence (P11387 1-765): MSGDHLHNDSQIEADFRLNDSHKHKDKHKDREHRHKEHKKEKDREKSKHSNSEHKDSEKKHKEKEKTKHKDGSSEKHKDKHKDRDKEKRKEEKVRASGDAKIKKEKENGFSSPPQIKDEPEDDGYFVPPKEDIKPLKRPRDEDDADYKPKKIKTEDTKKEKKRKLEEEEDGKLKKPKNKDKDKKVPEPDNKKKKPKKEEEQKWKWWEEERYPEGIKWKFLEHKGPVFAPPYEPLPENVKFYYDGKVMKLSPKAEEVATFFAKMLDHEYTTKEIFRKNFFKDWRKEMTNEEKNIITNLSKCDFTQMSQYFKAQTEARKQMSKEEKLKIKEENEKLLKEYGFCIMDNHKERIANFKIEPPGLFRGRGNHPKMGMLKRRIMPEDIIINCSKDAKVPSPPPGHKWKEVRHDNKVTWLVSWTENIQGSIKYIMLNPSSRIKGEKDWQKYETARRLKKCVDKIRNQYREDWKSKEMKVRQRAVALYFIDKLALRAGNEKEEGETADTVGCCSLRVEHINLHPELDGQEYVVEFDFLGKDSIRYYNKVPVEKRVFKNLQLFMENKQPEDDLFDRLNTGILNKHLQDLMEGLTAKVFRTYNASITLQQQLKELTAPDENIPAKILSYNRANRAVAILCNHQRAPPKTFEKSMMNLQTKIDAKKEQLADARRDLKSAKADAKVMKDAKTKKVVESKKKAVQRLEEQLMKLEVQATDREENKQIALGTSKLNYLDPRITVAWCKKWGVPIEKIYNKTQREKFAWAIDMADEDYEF

[4] = 10:1 ratio of activated charcoal/irinotecan, 200 μg/mL, simulated ileal medium pH 7.5
Text: Samples were centrifuged, filtered, and diluted ten-fold, prior to determination of the non-adsorbed concentration of irinotecan by measuring its absorbance at 368 nm using a spectrophotometer.

[5] = start 3/1, extra charcoal: 6/1 after 1 h and 9/1 after 2 h
[6] = start 10/1, extra charcoal: 20/1 after 1 h and 30/1 after 2 h

SMILES | Residual antibiotic after 2 h (*) [2, 5] [%] | Residual antibiotic after 2 h (*) [2, 6] [%] | other results
O=C(O)c1cn(C2CC2)c2cc(N3CCNCC3)c(F)cc2c1=O [Ciprofloxacine] | – | – | antibiotic adsorbed by the charcoal ([1]; time zero sample = approximately one minute of contact): ~70%; antibiotic adsorbed onto the charcoal ([1]; within one hour): Almost all of the antibiotic was adsorbed
O=C(O)[C@H]1/C(=C/CO)O[C@@H]2CC(=O)N21 [Clavulanate] | 22 | 3.5 | –
CCc1c2c(nc3ccc(O)cc13)-c1cc3c(c(=O)n1C2)COC(=O)[C@]3(O)CC [SN-38, 7-ethyl-10-hydroxycamptothecin] | – | – | time to complete adsorption [3]: ~30 min; antineoplastic activity relative to the prodrug form (Irinotecan) (topoisomerase I): 1000 fold
C[C@]1(Cn2ccnn2)[C@H](C(=O)O)N2C(=O)C[C@H]2S1(=O)=O [Tazobactam] | <20 | – | –
CN(C)c1cc(NC(=O)CNC(C)(C)C)c(O)c2c1C[C@H]1C[C@H]3[C@H](N(C)C)C(O)=C(C(N)=O)C(=O)[C@@]3(O)C(O)=C1C2=O [Tigecycline] | 21 | – | –
CC[C@H]1OC(=O)C[C@@H](O)[C@H](C)[C@@H](O[C@@H]2O[C@H](C)[C@@H](O[C@H]3C[C@@](C)(O)[C@@H](O)[C@H](C)O3)[C@H](N(C)C)[C@H]2O)[C@@H](CC=O)C[C@@H](C)C(=O)/C=C/C(C)=C/[C@@H]1CO[C@@H]1O[C@H](C)[C@@H](O)[C@@H](OC)[C@H]1OC [Tylosine] | <3 | <3 | –
CN[C@H](CC(C)C)C(=O)N[C@H]1C(=O)N[C@@H](CC(N)=O)C(=O)N[C@H]2C(=O)N[C@H]3C(=O)N[C@H](C(=O)N[C@H](C(=O)O)c4cc(O)cc(O)c4-c4cc3ccc4O)[C@H](O)c3ccc(c(Cl)c3)Oc3cc2cc(c3O[C@@H]2O[C@H](CO)[C@@H](O)[C@H](O)[C@H]2O[C@H]2C[C@](C)(N)[C@H](O)[C@H](C)O2)Oc2ccc(cc2Cl)[C@H]1O [Vancomycin] | 27 | <1.25 | –
CCc1c2c(nc3ccc(OC(=O)N4CCC(N5CCCCC5)CC4)cc13)-c1cc3c(c(=O)n1C2)COC(=O)[C@]3(O)CC [irinotecan, Irinotecan] | – | – | time to complete adsorption [4]: about 15 minutes
